Test system: NHBE cells
Assay: Biolog metabolic array: substrate use by NHBE cells with or without CA09 infection
Type: cell-based, human
Details: for Substrate use, 590 nm absorbance normalized to zero hour, 0 hr: Biolog PMM2, 0 hr; for Substrate use, 590 nm absorbance normalized to zero hour, 1 hr: Biolog PMM2, 1 hr; for Substrate use, 590 nm absorbance normalized to zero hour, 5 hr: Biolog PMM2, 5 hr; for Substrate use, 590 nm absorbance normalized to zero hour, 7 hr: Biolog PMM2, 7 hr
[1] = Control (uninfected) NHBE cells
[2] = Virus (CA09-infected NHBE cells, MOI 1)
[3] = Virus: CA09-infected NHBE cells, MOI 1, Biolog PMM2
[4] = Virus (CA09, MOI 1) infected NHBE cells
[5] = Virus (CA09-infected, MOI 1) NHBE cells

| Compound | 590 nm absorbance normalized to zero hour (substrate use), 1 hr [1] | 590 nm absorbance normalized to zero hour (substrate use), 2 hr [1] | 590 nm absorbance normalized to zero hour (substrate use), 3 hr [1] | 590 nm absorbance normalized to zero hour (substrate use), 4 hr [1] | 590 nm absorbance normalized to zero hour (substrate use), 6 hr [1] | 590 nm absorbance normalized to zero hour (substrate use), 8 hr [1] | 590 nm absorbance normalized to zero hour (substrate use), 9 hr [1] | 590 nm absorbance normalized to zero hour (substrate use), 10 hr [1] | 590 nm absorbance normalized to zero hour (substrate use), 11 hr [1] | Substrate use, 590 nm absorbance normalized to zero hour, 1 hr [1] | Substrate use, 590 nm absorbance normalized to zero hour, 5 hr [1] | Substrate use, 590 nm absorbance normalized to zero hour, 7 hr [1] | 590 nm absorbance normalized to zero hour (substrate use), 1 hr [2] | 590 nm absorbance normalized to zero hour (substrate use), 2 hr [2] | 590 nm absorbance normalized to zero hour (substrate use), 3 hr [2] | 590 nm absorbance normalized to zero hour (substrate use), 4 hr [2] | 590 nm absorbance normalized to zero hour (substrate use), 5 hr [2] | 590 nm absorbance normalized to zero hour (substrate use), 6 hr [2] | 590 nm absorbance normalized to zero hour (substrate use), 7 hr [2] | 590 nm absorbance normalized to zero hour (substrate use), 8 hr [2] | also measured |
| --- | --- | --- | --- | --- | --- | --- | --- | --- | --- | --- | --- | --- | --- | --- | --- | --- | --- | --- | --- | --- | --- |
| O[C@H]1[C@H](O)[C@@H](O)[C@H](O)[C@@H](O)[C@H]1O [m-Inositol] | 1.63 | 2.13 | 3.87 | 3.78 | 3.01 | 3.42 | 3.81 | 3.89 | 3.64 | 1.63 | 3.07 | 3.55 | 0.51 | 0.66 | 0.77 | 0.81 | 0.94 | 0.99 | 1.04 | 1.10 | 590 nm absorbance normalized to zero hour (substrate use), 0 hr [1]: 1.00; Substrate use, 590 nm absorbance normalized to zero hour, 0 hr [1]: 1.00; Substrate use, 590 nm absorbance normalized to zero hour, 11 hr (Control (uninfected) NHBE cells, Biolog PMM2, 11 hr): 4.22; 590 nm absorbance normalized to zero hour (substrate use), 0 hr [2]: 1.00; 590 nm absorbance normalized to zero hour (substrate use), 9 hr [2]: 1.20; 590 nm absorbance normalized to zero hour (substrate use), 10 hr [2]: 1.24; 590 nm absorbance normalized to zero hour (substrate use), 11 hr [2]: 1.34; 590 nm absorbance normalized to zero hour (substrate use), 0 hr [3]: 1.00; 590 nm absorbance normalized to zero hour (substrate use), 1 hr [3]: 0.51; 590 nm absorbance normalized to zero hour (substrate use), 2 hr [3]: 0.66; 590 nm absorbance normalized to zero hour (substrate use), 3 hr [3]: 0.77; 590 nm absorbance normalized to zero hour (substrate use), 4 hr [3]: 0.81; 590 nm absorbance normalized to zero hour (substrate use), 5 hr [3]: 0.94; 590 nm absorbance normalized to zero hour (substrate use), 6 hr [3]: 0.99; 590 nm absorbance normalized to zero hour (substrate use), 7 hr [3]: 1.04; 590 nm absorbance normalized to zero hour (substrate use), 8 hr [3]: 1.10; 590 nm absorbance normalized to zero hour (substrate use), 9 hr [3]: 1.20; 590 nm absorbance normalized to zero hour (substrate use), 10 hr [3]: 1.24; 590 nm absorbance normalized to zero hour (substrate use), 11 hr [3]: 1.34 |
| CC(=O)N[C@@H]1C(O)O[C@H](CO)[C@@H](O)[C@@H]1O (stereo partly drawn) [N-Acetyl-D-Mannosamine] | 0.90 | 0.77 | 0.71 | 0.68 | 0.65 | 0.63 | 0.58 | 0.67 | 0.66 | 0.90 | 0.68 | 0.61 |  |  |  |  |  |  |  |  | Substrate use, 590 nm absorbance normalized to zero hour, 1 hr [4]: 1.40; Substrate use, 590 nm absorbance normalized to zero hour, 5 hr [4]: 2.60; Substrate use, 590 nm absorbance normalized to zero hour, 7 hr [4]: 2.89; 590 nm absorbance normalized to zero hour (substrate use), 1 hr [5]: 1.40; 590 nm absorbance normalized to zero hour (substrate use), 2 hr [5]: 1.88; 590 nm absorbance normalized to zero hour (substrate use), 3 hr [5]: 2.13; 590 nm absorbance normalized to zero hour (substrate use), 4 hr [5]: 2.22; 590 nm absorbance normalized to zero hour (substrate use), 6 hr [5]: 2.70; 590 nm absorbance normalized to zero hour (substrate use), 8 hr [5]: 3.09; 590 nm absorbance normalized to zero hour (substrate use), 9 hr [5]: 3.29; 590 nm absorbance normalized to zero hour (substrate use), 10 hr [5]: 3.34; 590 nm absorbance normalized to zero hour (substrate use), 11 hr [5]: 3.55 |
| O=C(O)C[C@@H](O)C(=O)O [D-Malic Acid] | 1.49 | 2.03 | 2.06 | 2.25 | 2.19 | 3.00 | 3.06 | 3.20 | 3.52 | 1.49 | 2.63 | 2.87 | 2.26 | 2.49 | 2.54 | 2.71 | 2.61 | 1.75 | 1.82 | 1.98 | 590 nm absorbance normalized to zero hour (substrate use), 0 hr [1]: 1.00; Substrate use, 590 nm absorbance normalized to zero hour, 0 hr [1]: 1.00; 590 nm absorbance normalized to zero hour (substrate use), 0 hr [2]: 1.00; 590 nm absorbance normalized to zero hour (substrate use), 9 hr [2]: 1.95; 590 nm absorbance normalized to zero hour (substrate use), 10 hr [2]: 2.27; 590 nm absorbance normalized to zero hour (substrate use), 11 hr [2]: 2.21; 590 nm absorbance normalized to zero hour (substrate use), 0 hr [3]: 1.00; 590 nm absorbance normalized to zero hour (substrate use), 1 hr [3]: 2.26; 590 nm absorbance normalized to zero hour (substrate use), 2 hr [3]: 2.49; 590 nm absorbance normalized to zero hour (substrate use), 3 hr [3]: 2.54; 590 nm absorbance normalized to zero hour (substrate use), 4 hr [3]: 2.71; 590 nm absorbance normalized to zero hour (substrate use), 5 hr [3]: 2.61; 590 nm absorbance normalized to zero hour (substrate use), 6 hr [3]: 1.75; 590 nm absorbance normalized to zero hour (substrate use), 7 hr [3]: 1.82; 590 nm absorbance normalized to zero hour (substrate use), 8 hr [3]: 1.98; 590 nm absorbance normalized to zero hour (substrate use), 9 hr [3]: 1.95; 590 nm absorbance normalized to zero hour (substrate use), 10 hr [3]: 2.27; 590 nm absorbance normalized to zero hour (substrate use), 11 hr [3]: 2.21 |
| CCCCCC(=O)O [Hexanoic Acid] | 1.35 | 1.47 | 2.74 | 2.80 | 1.04 | 4.11 | 4.10 | 4.13 | 3.16 | 1.35 | 1.18 | 4.15 | 0.25 | 0.28 | 0.31 | 0.33 | 0.36 | 0.37 | 0.37 | 0.38 | 590 nm absorbance normalized to zero hour (substrate use), 9 hr [2]: 0.36; 590 nm absorbance normalized to zero hour (substrate use), 10 hr [2]: 0.40; 590 nm absorbance normalized to zero hour (substrate use), 11 hr [2]: 0.41; 590 nm absorbance normalized to zero hour (substrate use), 1 hr [3]: 0.25; 590 nm absorbance normalized to zero hour (substrate use), 2 hr [3]: 0.28; 590 nm absorbance normalized to zero hour (substrate use), 3 hr [3]: 0.31; 590 nm absorbance normalized to zero hour (substrate use), 4 hr [3]: 0.33; 590 nm absorbance normalized to zero hour (substrate use), 5 hr [3]: 0.36; 590 nm absorbance normalized to zero hour (substrate use), 6 hr [3]: 0.37; 590 nm absorbance normalized to zero hour (substrate use), 7 hr [3]: 0.37; 590 nm absorbance normalized to zero hour (substrate use), 8 hr [3]: 0.38; 590 nm absorbance normalized to zero hour (substrate use), 9 hr [3]: 0.36; 590 nm absorbance normalized to zero hour (substrate use), 10 hr [3]: 0.40; 590 nm absorbance normalized to zero hour (substrate use), 11 hr [3]: 0.41 |
